Assay results reported in patent publication US20170248582A1, “Mixed Spheroids of Melanocytes and Keratinocytes” (Syntivia, priority 2014, published 2017).
Entries after “also recorded” stand apart in the source; their conditions may differ.

Assays:
[1] = test system: mixed spheroids of keratinocytes and melanocytes; assay: Assay of melanin on mixed spheroids after treatment (photometry, melanin / total proteins); format: cell-based, Human
Description: The cells were lysed in a solution of 1M NaOH+10% DMSO and incubated 30 min at 90° C. A standard range was prepared with synthetic melanin and read-out performed at a wavelength of 405 nm. Assay of total proteins was performed on the lysate of melanin assay using the microBCA kit in accordance with the supplier's instructions. A standard range was prepared with BSA and read-out was performed at a wavelength of 605 nm. The results are expressed in the form of a ratio between the assay of melanin and assay of total proteins. 24 h after seeding, the mixed spheroids of the invention such as prepared in Example 1, and after removal of Matrigel® by washing with PBS, were treated with 300 μM IBMX or 500 μM PTU for 5 days with renewal of treatment at 4 days. The melanin was assayed as explained in Example 3.

[2] = test system: genes MITF, TYR, TYRP1 and PMEL in mixed spheroids of keratinocytes and melanocytes; assay: Quantification of pigmentation gene expression by quantitative PCR in mixed spheroids; format: cell-based, Human; settings: 300 μM IBMX for 24 h, normalised to GAPDH, vs non-treated control
Description: 48 h after their seeding the mixed spheroids of the invention such as prepared in Example 1, and after removal of Matrigel® by washing with PBS, were treated with 300 μM IBMX for 24 h. The spheroids were collected and washed with PBS after 24 h treatment with IBMX. The RNAs were extracted and reverse-transcribed to cDNA. Quantitative PCR was then performed to quantify the expression of the genes MITF, TYR, TYRP1 and PMEL. The expression of these genes was normalised by expression of the GAPDH housekeeping gene and compared with the non-treated control.

| Structure (SMILES) | induction of the amount of melanin in relation to total proteins ([1]; 300 μM IBMX for 5 days, renewal at 4 days, vs solvent control (DMSO)) [%] | total amount of melanin in the mixed spheroid ([1]; 300 μM IBMX for 5 days, compared with solvent control (DMSO), FIG. 8) | MITF expression, increased by a factor of [2] | expression of MITF gene ([2]; FIG. 9) | expression of PMEL gene ([2]; FIG. 9) | expression of TYR gene ([2]; FIG. 9) | expression of TYRP1 gene ([2]; FIG. 9) | global amount of melanin in the mixed spheroid / melanin production ([1]; 500 μM PTU for 5 days, compared with solvent control (EtOH), FIG. 8) |
| --- | --- | --- | --- | --- | --- | --- | --- | --- |
| CC(C)Cn1c(=O)n(C)c(=O)c2[nH]cnc21 [IBMX, 3-isobutyl-1-methylxanthine] | 50 | increase in the total amount of melanin | 5 | induced; also recorded: expression increased | induced; also recorded: increased | induced; also recorded: increased | induced; also recorded: increased |  |
| CCCc1cc(=O)[nH]c(=S)[nH]1 [PTU, propylthiouracil] |  |  |  |  |  |  |  | inhibits melanin production; also recorded: decrease in the global amount of melanin |
